Species: Rattus norvegicus
Test: Open TG-GATES - Regimen: Daily Repeat
Assay type: toxicity, organism-based, Sprague-Dawley
Design: regimen Daily Repeat, gender Male, age 6 weeks
Conditions: in vivo, po, route gavage; for AST / BUN / CRE / Ca / Cl / DBIL / GLC / IP / K / LDH / Na / PL / RALB / TBIL / TC / TG / TP / gamma-GTP / A/G / ALP / ALT: tissue Plasma; for APTT / Bas / Eos / Fbg / Hb / Ht / Lym / MCH / MCHC / MCV / Mono / Neu / PT / Plat / RBC / Ret / WBC: tissue Blood; for KIDNEY_L / KIDNEY_R / KIDNEY_TOTAL: tissue Kidney; for LIVER: tissue Liver
[1] = 100 mg/kg, […], dose level Middle, time 7 day
[2] = 100 mg/kg, […], dose level Middle, time 14 day
[3] = 100 mg/kg, […], dose level Middle, time 28 day
[4] = 300 mg/kg, 72 h, dose level High, time 3 day
[5] = 300 mg/kg, […], dose level High, time 7 day
[6] = 300 mg/kg, […], dose level High, time 14 day

CCc1cc(C(N)=S)ccn1 [ETHIONAMIDE]
AST [1]: 66.8 IU/L | BUN [1]: 15.8 mg/dL | CRE [1]: 0.4 mg/dL | Ca [1]: 10.4 mg/dL | Cl [1]: 104 meq/L | DBIL [1]: 0.088 mg/dL | GLC [1]: 194.8 mg/dL | IP [1]: 6.7 mg/dL | K [1]: 4.6 meq/L | LDH [1]: 106.2 IU/L | Na [1]: 139.8 meq/L | PL [1]: 122.2 mg/dL | RALB [1]: 3.7 g/dL | TBIL [1]: 0.3 mg/dL | TC [1]: 62 mg/dL | TG [1]: 52.2 mg/dL | TP [1]: 5.7 g/dL | gamma-GTP [1]: 2.4 IU/L | A/G [2]: 2.6 | ALP [2]: 878.4 IU/L | ALT [2]: 33.8 IU/L | AST [2]: 58.8 IU/L | BUN [2]: 16.8 mg/dL | CRE [2]: 0.5 mg/dL | Ca [2]: 10.5 mg/dL | Cl [2]: 105 meq/L | DBIL [2]: 0.034 mg/dL | GLC [2]: 196.8 mg/dL | IP [2]: 6.6 mg/dL | K [2]: 4.4 meq/L | LDH [2]: 82 IU/L | Na [2]: 142.2 meq/L | PL [2]: 125.2 mg/dL | RALB [2]: 4.2 g/dL | TBIL [2]: 0.3 mg/dL | TC [2]: 60.6 mg/dL | TG [2]: 65.8 mg/dL | TP [2]: 5.8 g/dL | gamma-GTP [2]: 1.4 IU/L | A/G [3]: 2.1 | ALP [3]: 579.4 IU/L | ALT [3]: 39.4 IU/L | AST [3]: 56 IU/L | BUN [3]: 19 mg/dL | CRE [3]: 0.6 mg/dL | Ca [3]: 9.9 mg/dL | Cl [3]: 104.4 meq/L | DBIL [3]: 0.016 mg/dL | GLC [3]: 196 mg/dL | IP [3]: 5.9 mg/dL | K [3]: 4.6 meq/L | LDH [3]: 86.2 IU/L | Na [3]: 140 meq/L | PL [3]: 121.6 mg/dL | RALB [3]: 4.2 g/dL | TBIL [3]: 0.3 mg/dL | TC [3]: 62.4 mg/dL | TG [3]: 60.4 mg/dL | TP [3]: 6.2 g/dL | gamma-GTP [3]: 1.8 IU/L | TERMINAL_BW [4]: 204.1 g | APTT [4]: 20 s | Bas [4]: 0% | Eos [4]: 1.4% | Fbg [4]: 161.6 mg/dL | Hb [4]: 17.1 g/dL | Ht [4]: 50.4% | Lym [4]: 59.8% | MCH [4]: 21.7 pg | MCHC [4]: 34.1% | MCV [4]: 63.5 fL | Mono [4]: 6.4% | Neu [4]: 32.6% | PT [4]: 16 s | Plat [4]: 119.1 x10_4/uL | RBC [4]: 794.4 x10_4/ul | Ret [4]: 13.3% | WBC [4]: 115.4 x10_2/uL | KIDNEY_L [4]: 1 g | KIDNEY_R [4]: 1 g | KIDNEY_TOTAL [4]: 2 g | LIVER [4]: 10.3 g | A/G [4]: 2.3 | ALP [4]: 1108.2 IU/L | ALT [4]: 72.6 IU/L | AST [4]: 190.6 IU/L | BUN [4]: 12.2 mg/dL | CRE [4]: 0.5 mg/dL | Ca [4]: 9.7 mg/dL | Cl [4]: 106.2 meq/L | DBIL [4]: 0.1 mg/dL | GLC [4]: 172.6 mg/dL | IP [4]: 7.6 mg/dL | K [4]: 4.6 meq/L | LDH [4]: 244 IU/L | Na [4]: 139.4 meq/L | PL [4]: 82.8 mg/dL | RALB [4]: 3.4 g/dL | TBIL [4]: 0.3 mg/dL | TC [4]: 46.4 mg/dL | TG [4]: 16 mg/dL | TP [4]: 4.9 g/dL | gamma-GTP [4]: 1.4 IU/L | TERMINAL_BW [5]: 227.8 g | APTT [5]: 21.4 s | Bas [5]: 0.3% | Eos [5]: 3.7% | Fbg [5]: 206 mg/dL | Hb [5]: 16 g/dL | Ht [5]: 46.9% | Lym [5]: 44.7% | MCH [5]: 20.2 pg | MCHC [5]: 34.1% | MCV [5]: 59.2 fL | Mono [5]: 9% | Neu [5]: 42% | PT [5]: 14.7 s | Plat [5]: 109.9 x10_4/uL | RBC [5]: 792.3 x10_4/ul | Ret [5]: 2.8% | WBC [5]: 127.9 x10_2/uL | Bas [6]: 0% | MCHC [6]: 34.2% | KIDNEY_L [5]: 1 g | KIDNEY_R [5]: 1 g | KIDNEY_TOTAL [5]: 2.1 g | KIDNEY_L [6]: 1 g | KIDNEY_TOTAL [6]: 2.1 g | LIVER [5]: 11.3 g | A/G [5]: 1.7 | ALP [5]: 739.3 IU/L | ALT [5]: 66 IU/L | AST [5]: 129 IU/L | BUN [5]: 12.7 mg/dL | CRE [5]: 0.4 mg/dL | Ca [5]: 10.1 mg/dL | Cl [5]: 102.3 meq/L | DBIL [5]: 0.0933 mg/dL | GLC [5]: 143 mg/dL | IP [5]: 7.2 mg/dL | K [5]: 3.9 meq/L | LDH [5]: 397.7 IU/L | Na [5]: 136.7 meq/L | PL [5]: 123.7 mg/dL | RALB [5]: 3.6 g/dL | TBIL [5]: 0.3 mg/dL | TC [5]: 95.3 mg/dL | TG [5]: 22.3 mg/dL | TP [5]: 5.7 g/dL | gamma-GTP [5]: 3.7 IU/L | TBIL [6]: 0.3 mg/dL | gamma-GTP [6]: 7 IU/L

Reference: ChEMBL document CHEMBL3885861, “Open TG-GATES”
